Paper PMC4113800 (Marine Drugs, 2014)

Experiments:
BCRP [1] = biological target: T1, BCRP (Homo sapiens, UniProt Q9UNQ0); assay: cell-based; details: for FAR (fluorescence arbitrary ratio), mitoxantrone fluorescence / % FTC (inhibition of mitoxantrone efflux normalized to 10 μM FTC): NCI-H460/MX20
T1 sequence (Q9UNQ0 1-655): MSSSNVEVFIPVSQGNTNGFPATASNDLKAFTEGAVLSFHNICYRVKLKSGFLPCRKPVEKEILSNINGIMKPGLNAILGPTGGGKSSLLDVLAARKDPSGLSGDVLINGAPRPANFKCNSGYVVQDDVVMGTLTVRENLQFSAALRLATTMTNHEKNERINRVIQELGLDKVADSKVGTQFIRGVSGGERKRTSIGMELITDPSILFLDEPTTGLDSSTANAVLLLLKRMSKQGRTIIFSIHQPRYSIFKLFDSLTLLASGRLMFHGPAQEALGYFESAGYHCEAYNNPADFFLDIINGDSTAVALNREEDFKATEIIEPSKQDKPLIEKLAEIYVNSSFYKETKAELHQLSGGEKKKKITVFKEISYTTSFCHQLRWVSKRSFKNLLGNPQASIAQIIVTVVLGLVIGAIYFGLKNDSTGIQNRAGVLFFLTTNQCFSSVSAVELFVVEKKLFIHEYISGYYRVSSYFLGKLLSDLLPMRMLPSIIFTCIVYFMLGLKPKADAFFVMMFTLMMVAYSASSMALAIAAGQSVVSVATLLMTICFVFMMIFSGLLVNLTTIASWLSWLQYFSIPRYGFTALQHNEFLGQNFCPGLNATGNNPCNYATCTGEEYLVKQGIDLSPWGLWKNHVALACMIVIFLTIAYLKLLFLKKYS
Method: (§1) Flow cytometry based assays were used to measure the ability of natural or synthetic compounds to inhibit P-gp, BCRP or MRP1 mediated accumulation and/or efflux of fluorescent reagents. […] For the calcein AM accumulation assays, cells were directly analyzed by flow cytometry.
(§2) Intracellular fluorescence intensity was measured on a BD FACSCanto™ II flow cytometer (Becton Dickinson, San Jose, CA, USA) and data were analyzed through FlowJo (Tree Star, Inc., Ashland, OR, USA). […] Mitoxantrone fluorescence was detected with a 638 nm […] laser and a 660/20 nm band-pass filter. At least 10,000 events were collected for all of the flow cytometry experiment. By increasing threshold value on forward scatter versus side scatter, debris was eliminated. Dead cells were excluded based on propidium iodide staining. Data are means ± SEM of at least three independent experiments performed in duplicate.

P-gp = biological target: T2, P-gp (Homo sapiens, UniProt P08183); assay type: cell-based; details: compound or verapamil 20 μM vs PBS; calcein AM […]; SW620 Ad300; further: calcein AM 0.25 µM
T2 construct: The drug-resistant P-gp over-expressing daughter cell line SW620 Ad300 was established by stepwise selection; endogenous in cells; host or cells: SW620 Ad300 (human colon cancer, doxorubicin-selected)
Method: as §1, §2

[2] = MTT cytotoxicity assay, P-gp over-expressing SW620 Ad300 cells; assay type: cell-based; details: human
Method: (§3) The MTT assay was modified based on that previously described, using adherent cell lines SW620 and NCI-H460, and their P-gp over-expressing daughter cell line SW620 Ad300 and BCRP over-expressing daughter cell line NCI-H460/MX20, respectively. Briefly, cells were harvested with trypsin and added into 96-well microtitre assay plates at 2000 cells/well, followed by 18 h incubation at 37 °C with 5% CO2. […] Control wells were treated with 5% aqueous DMSO. […] 68 h later, 20 μL MTT (4 mg/mL in PBS) was dispensed into each well (final concentration 0.40 mg/mL), and plates were incubated for a further 4 h at 37 °C with 5% CO2. Finally medium was removed and precipitated formazan crystals were dissolved in 100% DMSO. The absorbance of each well was measured at 580 nm with a PowerWave XS Microplate Reader from Bio-Tek Instruments Inc. (Vinooski, VT, USA).
(§4) All experiments were performed in duplicate.

[3] = MTT cytotoxicity assay, parental SW620 cells; assay type: cell-based; details: human
Method: as §3, §4

SW620 Ad300 cells = assay: Reversal of P-gp mediated doxorubicin resistance (MTT assay); assay type: cell-based, human
Method: as §3, §4

NCI-H460 cells = assay: [3H]-mitoxantrone accumulation and efflux in parental NCI-H460 cells; assay type: cell-based, human; details: 11 at 10 or 30 μM, FTC 5.0 μM
Excerpt: […]. […] […]

BCRP [4] = biological target: T1, BCRP; details: FTC 5.0 μM; [3H]-mitoxantrone 0.10 μM; NCI-H460/MX20
Method: In the efflux study cells were incubated with 0.1 μM [^3H]-mitoxantrone as the same in the accumulation study.

T2 sequence (P08183 whole entry): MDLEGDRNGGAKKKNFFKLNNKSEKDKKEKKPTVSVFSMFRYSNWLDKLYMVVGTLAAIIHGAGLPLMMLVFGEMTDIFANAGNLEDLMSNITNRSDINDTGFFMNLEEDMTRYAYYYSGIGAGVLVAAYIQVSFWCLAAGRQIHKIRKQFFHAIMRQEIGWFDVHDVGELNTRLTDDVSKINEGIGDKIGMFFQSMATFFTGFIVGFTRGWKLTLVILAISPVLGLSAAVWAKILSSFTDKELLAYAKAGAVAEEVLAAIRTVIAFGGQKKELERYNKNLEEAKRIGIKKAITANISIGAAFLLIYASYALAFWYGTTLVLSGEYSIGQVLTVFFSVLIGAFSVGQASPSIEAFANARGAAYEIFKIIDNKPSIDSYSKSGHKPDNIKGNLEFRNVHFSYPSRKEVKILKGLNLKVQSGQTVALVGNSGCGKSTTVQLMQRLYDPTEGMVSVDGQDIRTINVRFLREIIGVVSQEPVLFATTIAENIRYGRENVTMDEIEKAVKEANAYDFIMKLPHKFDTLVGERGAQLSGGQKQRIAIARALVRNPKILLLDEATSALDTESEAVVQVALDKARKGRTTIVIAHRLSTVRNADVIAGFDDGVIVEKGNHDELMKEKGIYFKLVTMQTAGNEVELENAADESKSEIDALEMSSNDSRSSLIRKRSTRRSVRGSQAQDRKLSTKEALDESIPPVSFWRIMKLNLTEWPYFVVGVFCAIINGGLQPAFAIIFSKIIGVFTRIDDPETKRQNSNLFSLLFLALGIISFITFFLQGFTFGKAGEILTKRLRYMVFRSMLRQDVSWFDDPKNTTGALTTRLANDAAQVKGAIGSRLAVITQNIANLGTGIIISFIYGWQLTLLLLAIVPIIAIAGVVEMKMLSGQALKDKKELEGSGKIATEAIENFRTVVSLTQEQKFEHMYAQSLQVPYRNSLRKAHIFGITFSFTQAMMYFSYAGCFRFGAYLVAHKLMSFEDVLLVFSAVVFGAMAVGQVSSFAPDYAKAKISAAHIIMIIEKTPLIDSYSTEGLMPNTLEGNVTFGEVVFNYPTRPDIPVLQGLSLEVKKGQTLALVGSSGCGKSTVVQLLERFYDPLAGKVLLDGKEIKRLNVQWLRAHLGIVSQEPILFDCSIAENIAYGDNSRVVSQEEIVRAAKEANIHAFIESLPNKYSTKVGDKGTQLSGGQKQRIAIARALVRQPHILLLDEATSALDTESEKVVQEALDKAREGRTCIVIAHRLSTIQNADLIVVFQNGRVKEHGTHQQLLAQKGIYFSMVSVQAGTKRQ

Row | Structure (SMILES) | FAR (fluorescence arbitrary ratio), intracellular calcein fluorescence (P-gp) | FAR (fluorescence arbitrary ratio), mitoxantrone fluorescence (BCRP [1]; compound 20 μM vs PBS) | % FTC (inhibition of mitoxantrone efflux normalized to 10 μM FTC) (BCRP [1]; compound 20 μM) | IC50 at 68 h [2] | IC50 at 68 h [3] | also measured
1 | COC(=O)c1cc(Br)cn1CC(=O)c1ccc(OC)cc1 [Compound 14] |  | 1.03 fold | < 1.00 % FTC |  |  | 
2 | COC(=O)c1cccn1CC(=O)c1ccc(OC)cc1 [Compound 13] |  | 1.00 fold | < 1.00 % FTC |  |  | 
3 | COc1cccc2c1C(=O)c1c(O)c3c(c(O)c1C2=O)C[C@@](O)(C(=O)CO)C[C@@H]3O[C@H]1C[C@H](N)[C@H](O)[C@H](C)O1 [doxorubicin, reference compound] |  |  |  |  |  | IC50 (SW620 Ad300 cells; Homo sapiens, doxorubicin alone): 4.44 ± 0.21 µM
4 | COC(=O)c1c(Br)c(Br)c(Br)n1CC(=O)c1ccc(OC)cc1 [Compound 16] |  | 1.20 fold | 5.45 % FTC |  |  | 
5 | COC(=O)c1c(-c2ccc(O)cc2)c(-c2ccc(O)cc2)cn1CC(=O)c1ccc(OC)cc1 [Compound 11, lamellarin O] |  |  |  | 22.3 µM | 22 µM | DMF (dose-modifying factor), increase in sensitivity towards doxorubicin (SW620 Ad300 cells; lamellarin O (11) 5.0 μM): 1.5 fold; DMF (dose-modifying factor), increase in sensitivity towards doxorubicin (SW620 Ad300 cells; lamellarin O (11) 10 μM): 3.1 fold; DMF (dose-modifying factor), increase in sensitivity towards doxorubicin (SW620 Ad300 cells; lamellarin O (11) […] μM): 4.8 fold; effect on intracellular [3H]-mitoxantrone levels, accumulation phase (NCI-H460 cells): neither 11 (10 or 30 μM) nor FTC (5.0 μM) significantly changed intracellular [^3H]-mitoxantrone levels; effect on intracellular [3H]-mitoxantrone levels, efflux phase (NCI-H460 cells): Neither 11 nor FTC had a significant effect
6 | COc1ccc(CCN(C)CCCC(C#N)(c2ccc(OC)c(OC)c2)C(C)C)cc1OC (stereo not drawn) [verapamil, reference compound] |  |  |  |  |  | DMF (dose-modifying factor), increase in sensitivity towards doxorubicin (SW620 Ad300 cells; verapamil […]): 8.8 fold
7 | COc1ccc2c3c([nH]c2c1)[C@H](C=C(C)C)N1C(=O)[C@@H]2CCCN2C(=O)[C@@H]1C3 [FTC, Fumitremorgin C, reference compound] |  |  |  |  |  | FAR (fluorescence arbitrary ratio), mitoxantrone fluorescence (BCRP [1]; FTC 10 μM (positive control) vs PBS): 3.17 fold; % FTC (inhibition of mitoxantrone efflux normalized to 10 μM FTC) (BCRP [1]; FTC 10 μM (positive control, set as 100%)): 100 % FTC; increase in [3H]-mitoxantrone accumulation (BCRP [4]): 2.2 fold; effect on intracellular [3H]-mitoxantrone levels, accumulation phase (NCI-H460 cells): neither 11 (10 or 30 μM) nor FTC (5.0 μM) significantly changed intracellular [^3H]-mitoxantrone levels; effect on intracellular [3H]-mitoxantrone levels, efflux phase (NCI-H460 cells): Neither 11 nor FTC had a significant effect
8 | COC(=O)c1ccc(Br)n1CC(=O)c1ccc(OC)cc1 [Compound 15] |  | 0.97 fold | < 1.00 % FTC |  |  | 
9 | COC(=O)c1c(-c2ccc(OC)cc2)c(-c2ccc(OC)cc2)cn1CC(=O)c1ccc(OC)cc1 [Compound 19, 4′,4″-dimethyl-lamellarin O] |  |  |  |  |  | IC50 (BCRP [1]): > 100 µM

The next lines start with results.

Row | FAR (fluorescence arbitrary ratio), intracellular calcein fluorescence (P-gp) | Structure (SMILES) | FAR (fluorescence arbitrary ratio), mitoxantrone fluorescence (BCRP [1]; compound 20 μM vs PBS) | % FTC (inhibition of mitoxantrone efflux normalized to 10 μM FTC) (BCRP [1]; compound 20 μM) | IC50 at 68 h [2] | IC50 at 68 h [3] | also measured
10 | 0.60 fold | COC(=O)C1(OC)OC(=O)C(c2ccc(O)cc2)=C1c1ccc(O)cc1 (stereo not drawn) [Compound 8, ianthellidone H] | 1.13 fold | 6.06 % FTC | > 30 µM | > 30 µM | 
11 | 0.60 fold | COC(=O)c1c(-c2ccc(O)cc2)c(-c2ccc(O)cc2)cn1CC(O)c1ccc(O)cc1 (stereo not drawn) [Compound 10, lamellarin O2] | 1.11 fold | 5.13 % FTC | > 30 µM | > 30 µM | 
12 | 0.52 fold | CCOC1(C(=O)OC)NC(=O)C(c2ccc(O)cc2)=C1c1ccc(O)cc1 (stereo not drawn) [Compound 2, ianthellidone B] | 1.07 fold | 3.13 % FTC | > 30 µM | > 30 µM | 
13 | 0.60 fold | CCOCN1C(=O)C(c2ccc(O)cc2)=C(c2ccc(O)cc2)C1(O)C(=O)OC (stereo not drawn) [Compound 4, ianthellidone D] | 1.15 fold | 6.66 % FTC | > 30 µM | > 30 µM | 
14 | 0.54 fold | COC(=O)c1[nH]cc(-c2ccc(O)cc2)c1-c1ccc(O)cc1 [Compound 12, lamellarin Q] | 1.41 fold | 18.6 % FTC | > 30 µM | > 30 µM | 
15 | 0.61 fold | COC(=O)C1(O)C(c2ccc(O)cc2)=C(c2ccc(O)cc2)C(=O)N1CC(=O)c1ccc(OC)cc1 (stereo not drawn) [Compound 6, ianthellidone F] | 1.21 fold | 9.79 % FTC | > 30 µM | > 30 µM | 
16 | 0.67 fold | COC(=O)C1(O)OC(=O)C(c2ccc(O)cc2)=C1c1ccc(O)cc1 (stereo not drawn) [Compound 7, ianthellidone G] | 1.09 fold | 4.06 % FTC | > 30 µM | > 30 µM | 
17 | 0.61 fold | COCN1C(=O)C(c2ccc(O)cc2)=C(c2ccc(O)cc2)C1(O)C(=O)OC (stereo not drawn) [Compound 3, ianthellidone C] | 1.12 fold | 5.60 % FTC | > 30 µM | > 30 µM | 
18 | 0.61 fold | COC(=O)c1c(-c2ccc(O)cc2)c(-c2ccc(O)cc2)cn1CC(=O)c1ccc(O)cc1 [Compound 9, lamellarin O1] | 1.23 fold | 10.6 % FTC | > 30 µM | > 30 µM | 
19 | 0.63 fold | COC(=O)C1(O)NC(=O)C(c2ccc(O)cc2)=C1c1ccc(O)cc1 (stereo not drawn) [Compound 1, ianthellidone A] | 0.97 fold | <1.00 % FTC | > 30 µM | > 30 µM | 
20 | 0.59 fold | CCOC(=O)CN1C(=O)C(c2ccc(O)cc2)=C(c2ccc(O)cc2)C1(O)C(=O)OC (stereo not drawn) [Compound 5, ianthellidone E] | 1.14 fold | 6.20 % FTC | > 30 µM | > 30 µM | 
